Laboratory results published in ChEMBL document CHEMBL5244269, “Improving metabolic stability and removing aldehyde oxidase liability in a 5-azaquinazoline series of IRAK4 inhibitors” (Bioorg Med Chem, 2020).

Legend:
OCI-Ly10 = test: Growth inhibition of human OCILY10 cells at 0.33 uM incubated for 3 days (reference value: -2%); format: functional; details: OCI-Ly10, 72 h, time 3 day, read-out: GI
[1] = Metabolic stability in human hepatocytes assessed as half life; format: ADME, cell-based, Hepatocyte

CC[C@@H]1[C@H](F)C(=O)N[C@@H]1COc1nccc2cc(C(N)=O)c(OC)cc12 [ZIMLOVISERTIB]
inhibition of growth at 0.33 µM (OCI-Ly10): 5%

Cc1ncc(-c2nc3c(OC4(C)CC4)nc(Nc4cnn(C5CCN(C)CC5)c4)nc3cc2F)cn1
half-life [1]: 30 h
